Test [1] addresses T1, KHK-C (Homo sapiens (Human), UniProt P50053). Kind of test: Assay C: KHK assay at high fructose (8 mM) and ATP (2 mM), 1 nM KHK-C. To be noted: read-out: IC50 (nM) Assay C 1 nM KHK-C, 8 mM fructose, 2 mM ATP, avg of (#) runs. In kind it is biochemical.
Text: (§1) A screening assay was developed for KHK involving a coupled enzyme system which used the product of the KHK reaction to drive an absorbance signal in kinetic mode. KHK takes fructose and ATP and converts it to F1P and ADP. ADP then serves as substrate to pyruvate kinase which converts PEP to pyruvate which is then reduced to lactate by lactate dehydrogenase with the concomitant oxidation of NADH to NAD+. The resulting depletion of NADH was monitored by measuring absorbance at 340 nm.
(§2) Recombinant human KHK-C and KHK-A were expressed in E. coli as a His-tagged fusion protein and purified using Ni-NTA chromatography.
A third KHK assay, referred to as Assay C, was performed at high fructose and ATP concentrations, conditions that would be more consistent with physiological concentrations of the natural substrates of the KHK enzyme. Assay C was conducted as described above for Assay B except using 8 mM fructose and 2 mM ATP, and compound concentration range of 10 pM to 1 μM or 50 pM to 5 μM using half-log dilution scheme.
The next test addresses KHK-A (Homo sapiens (Human), UniProt P50053). Kind of test: Assay D: KHK assay with 1 nM human KHK-A. The note with it: read-out: IC50 (nM) Assay D 1 nM KHK-A, 8 mM fructose, 0.2 mM ATP, avg of (#) runs.
Test [2] concerns the target T1, KHK-C. As to the kind of experiment: Assay A: coupled-enzyme KHK absorbance assay, 10 nM KHK-C. To be noted: 10 nM KHK-C, 0.8 mM fructose, 0.2 mM ATP, avg of (#) runs.
Text: as §1, §2
Compounds were prepared in DMSO as 4 mM stocks, diluted using an 11-point half-log scheme on a Biomek FX (Beckman Coulter), and incubated at rt for 30 minutes with the reaction mixture containing 50 mM HEPES, pH 7.4, 140 mM KCl, 3.5 mM MgCl2, 0.8 mM fructose, 2 mM TCEP, 0.8 mM PEP, 0.7 mM NADH, 0.01% Triton X-100, 30 U/mL pyruvate kinase-lactate dehydrogenase, and 10 nM purified KHK-C. The compound concentration in each well ranged from 1 nM to 100 μM. The reaction was initiated with the addition of 0.2 mM ATP. The absorbance was measured for 30 minutes on a SpectraMax reader (Molecular Devices) after ATP was added. The concentrations provided are based on the final mixture volume of 40 μL (referred to as the final concentration).
Controls: N8-(cyclopropylmethyl)-N4-(2-(methylthio)phenyl)-2-(piperazin-1-yl)pyrimido[5,4-d]pyrimidine-4,8-diamine at 2 μM final concentration was used as high percent effect (HPE) control, and 2.5% DMSO which was present in all reaction wells was used as zero percent effect (ZPE) control. Reaction rates were obtained for 300-1800 seconds time window in units of 1000*AU/min (absorbance unit per minute), and average values for ZPE and HPE controls from 16 wells each were calculated, AveZPE and AveHPE, respectively.
Percent inhibition (% inhibition) was calculated for each well using this equation:
For each compound tested, the IC50 provided is the average based on at least two separate assays conducted on separate days.
The target in test [3] is T1, KHK-C. Kind of test: Assay B: KHK assay with 1 nM KHK-C, absorbance for 3 hours. To be noted: read-out: IC50 (nM) Assay B 1 nM KHK-C; 1 nM KHK-C, 0.2 mM ATP, 3 hours; avg of (#) runs.
Text: as §1
The reaction was initiated with addition of 0.2 mM ATP, and the absorbance was monitored for 3 hours at 340 nm. Reaction rates and IC50 values were calculated as described above.

T1 sequence (P50053 whole entry): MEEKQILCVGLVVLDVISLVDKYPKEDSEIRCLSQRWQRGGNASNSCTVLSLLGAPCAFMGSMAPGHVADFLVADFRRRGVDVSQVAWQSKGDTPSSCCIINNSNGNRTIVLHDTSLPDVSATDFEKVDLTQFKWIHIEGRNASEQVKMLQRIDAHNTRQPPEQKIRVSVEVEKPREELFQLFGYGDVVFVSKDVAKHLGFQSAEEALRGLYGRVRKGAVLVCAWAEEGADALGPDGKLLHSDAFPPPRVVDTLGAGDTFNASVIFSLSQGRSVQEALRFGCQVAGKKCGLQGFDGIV
Chain of KHK-A (P50053 other isoform, or with tags, fused parts or gaps): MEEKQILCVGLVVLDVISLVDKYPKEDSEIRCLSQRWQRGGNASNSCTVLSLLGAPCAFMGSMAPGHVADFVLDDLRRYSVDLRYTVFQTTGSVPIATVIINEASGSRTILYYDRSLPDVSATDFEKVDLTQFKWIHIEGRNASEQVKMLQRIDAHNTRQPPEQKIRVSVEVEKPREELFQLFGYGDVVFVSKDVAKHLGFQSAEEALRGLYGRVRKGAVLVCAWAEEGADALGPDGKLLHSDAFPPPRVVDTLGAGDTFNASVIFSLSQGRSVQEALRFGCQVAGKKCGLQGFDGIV
Text for KHK-A: as §1
A fourth assay, referred to as Assay D, was performed using human KHK-A to assess the potency of compounds in inhibiting activity of this enzyme. […] Reaction rates and IC50 values were calculated as described above.

For the compound `Cc1c(N2C[C@@H]3[C@@H](CC(=O)O)[C@@H]3C2)nc(N2C[C@@H](O)[C@@H]2C)nc1C(F)(F)F` [Example 24, [(1R,5S,6R)-3-{2-[(2S,3R)-3-hydroxy-2-methylazetidin-1-yl]-5-methyl-6-(trifluoromethyl)pyrimidin-4-yl}-3-azabicyclo[3.1.0]hex-6-yl]acetic acid], the IC50 (usually the concentration that inhibits the measured activity by half) at KHK-C [1] was 11 nM; on KHK-A it was 12.1 nM; at KHK-C [2] (read-out: IC50 (nM) Assay A 10 nM KHK-C), 9.7 nM; on KHK-C [2] (read-out: IC50 (nM) Assay A (Table 4)) it was 9.7 nM; at KHK-C [3] it was 3.3 nM.

The values above are taken from patent US10174007B2, “Substituted 3-azabicyclo[3.1.0]hexanes as ketohexokinase inhibitors” (Pfizer Inc., priority 2015, dated 2019).
